One experiment concerns N. gonorrhoeae strains. Kind of experiment: Well diffusion assay in the absence of human cells. On the set-up: species or system Neisseria gonorrhoeae. The conditions noted are these: GC-agar, overnight 37° C. How it is done:
(§1) FIG. 22 is a graphical representation showing the effect of carbamazepine on N. gonorrhoeae in the absence of human cells. Well diffusion assays were performed in which N. gonorrhoeae strains were spread uniformly across the surface of GC-agar plates at a culture density of 10^7 bacterial per mL. Wells were then punctured within the agar surface to which carbamazepine (Cz; […], as noted), 0.2 μg/mL ceftriaxone (Cfx), 10 μg/mL ciprofloxacin (Cip), or 1% DMSO (vehicle control) were added. […] For agar plates in which a ZOI was not visible, data were recorded as the diameter of the well (6 mm), as indicated. Assays were performed in triplicate on 3 separate occasions. Data are presented as the mean and variance of the average values obtained for each assay; statistical significance was determined using a Student's t-test. […] This is consistent with a CR3-dependent, host-mediated mechanism of killing.
as §1, with “23” for “22”, “methyldopa” for “carbamazepine”, “methyldopa (Md;” for “carbamazepine (Cz;”
FIG. 24 is a graphical representation showing the effect of flufenamic acid on N. gonorrhoeae in the absence of human cells. Well diffusion assays were performed in which N. gonorrhoeae strains were spread uniformly across the surface of GC-agar plates at a culture density of 10^7 bacterial per mL. Wells were then punctured within the agar surface to which flufenamic acid ([…], as noted), 0.2 μg/mL ceftriaxone, 10 μg/mL ciprofloxacin, or 1% DMSO (vehicle control) were added. […] For agar plates in which a ZOI was not visible, data were recorded as the diameter of the well (6 mm), as indicated. Assays were performed in triplicate on 3 separate occasions. Data are presented as the mean and variance of the average values obtained for each assay; statistical significance was determined using a Student's t-test.
For orientation: In agar diffusion tests the substance spreads into inoculated agar from a disc or well.

For experiment [1], the target named is T1, human recombinant I-domain (rI-domain) of CD11b (Homo sapiens, UniProt P11215).
T1 construct: made in house
T1 sequence (P11215 150-328 limits assumed): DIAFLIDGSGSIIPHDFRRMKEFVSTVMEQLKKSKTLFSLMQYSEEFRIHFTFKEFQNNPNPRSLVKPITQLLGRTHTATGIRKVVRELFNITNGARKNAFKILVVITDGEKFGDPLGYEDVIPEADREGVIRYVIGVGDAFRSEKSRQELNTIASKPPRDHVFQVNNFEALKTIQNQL
In words: Surface plasmon resonance binding to human rI-domain (KD). Background: In SPR one partner is held on a chip, and binding of the other changes the refractive index at the surface.

In experiment [2] the target is T2, N. gonorrhoeae MS11 pilin interaction with human rI-domain (Homo sapiens, UniProt P11215).
T2 construct: was performed with human rI-domain immobilized on a CM5 sensor chip surface; made in house
T2 sequence (P11215 150-328): as the sequence (P11215 150-328 limits assumed) above
In words: SPR 1:1 competition assay, MS11 pilin binding to rI-domain. The conditions noted are these: for inhibition at 0.1 µM: 1:1 competition, 100 nM; for Block MS11 pilin in SPR: direct competition SPR; for Drug RU: drug alone flowed at 100 nM over immobilized rI-domain; for Pilin + Drug RU: drug and pilin flowed at 100 nM, 1:1. On the procedure: To determine if drugs with high affinity interactions with the human rI-domain could inhibit the interaction with MS11 pilin or HIV, competition assay between primary T-cell derived WITO HIV and N. gonorrhoeae MS11 pilin and the drugs were performed as described Mubaiwa et al (2017, Sci Rep. 7(1):5693). Competition analysis SPR of N. gonorrhoeae MS11 pilin and human rI-domain interaction was performed with human rI-domain immobilized on a CM5 sensor chip surface (low immobilization—˜3500 RU compared to ˜14000 RU for initial screening and KD calculations). N. gonorrhoeae MS11 purified pilin, drug or drug and pilin were flowed at 100 nM over the I-domain and the response units of the interactions were recorded.

The test system of experiment [3] is primary T-cell derived WITO HIV interaction with human rI-domain. Kind of experiment: SPR 1:1 competition assay, WITO HIV binding to rI-domain. As to conditions: for % inhibition: 1:1 competition, 1 μM; for Block HIV in SPR: direct competition SPR; for Drug RU: drug alone flowed at 1 μM over immobilized WITO HIV; for Pilin + Drug RU: drug and human rI-domain flowed at 1 μM, 1:1. How it is done:
For competition analysis SPR of the HIV interaction with human rI-domain, primary T-cell derived WITO HIV was immobilized on a Cl sensor chip surface. Human rI-domain, drug or drug and human rI-domain were flowed at 1 μM over the immobilized HIV and the response units of the interactions were recorded. Any drug that could not compete with the virus or pilin binding to the rI-domain was also discarded. Remaining drugs were evaluated for known safety in humans and known therapeutic concentrations to determine if the drug would be tested, and at what concentrations, in in vitro cell models. All SPR sensorgrams and results plots were analyzed with Biacore S200 Evaluation Software (GE Healthcare Life Sciences).

Experiment [4] concerns N. gonorrhoeae strain MS11gfp adherence to CHO-CR3 cells. Kind of experiment: Fluorometric adherence assay, gonococci to CHO cells. Format: cell-based, Neisseria gonorrhoeae. On the procedure:
The ability of carbamazepine to block adherence of N. gonorrhoeae strain MS11gfp to CHO-neo or CHO-CR3 cells was evaluated using a fluorometric adherence assay. Assays were performed essentially as described by Jen et al (2013, PLoS Pathog. 9(5):e1003377). In this regard, CHO-neo or CHO-CR3 cells were seeded to a 96-well plate and allowed to grow to confluence. MS11gfp gonococci were then used to challenge (1 h) CHO cells simultaneously with, or without, various concentrations of carbamazepine (as noted). Fluorescence (485/528 nm) intensity, corresponding to bacterial adherence, was recorded using a Synergy HT Multi-mode Microplate Reader (BioTek Instruments, Winooski, VT USA). The assay was performed in triplicate on 3 separate occasions. A Kruskal-Wallis k-sample analysis of variance was used to determine the statistical significance of the calculated mean of bacterial adherence.
(§2) The ability of the compounds, or negative controls to block adherence of N. gonorrhoeae strain MS11gfp to PEX cells, CHO-CR3, or CHO-neo cells was evaluated using a fluorometric microtiter plate assay. Assays were performed essentially as described by Jen et al. (2013, Plos Pathog 9(5): e1003377). In this regard, GFP-expressing gonococci were used to challenge (1 h) PEX or CHO cells immediately following compound addition. Fluorescence (485/528 nm) intensity, corresponding to bacterial adherence, was recorded using a Synergy HT Multi-mode Microplate Reader (BioTek Instruments, Winooski, VT USA). Blank wells, devoid of PEX or CHO cells, also were inoculated with bacteria and served as a control for non-specific binding. The assay was performed in triplicate on 3 separate occasions. A Student's t-test was used to determine the statistical significance of the calculated mean of bacterial adherence.

Experiment [5] has as its system N. gonorrhoeae adherence to primary human cervical epithelial (PEX) cells. Kind of experiment: Fluorometric adherence assay, gonococci to PEX cells. As to conditions: for gonococcal adherence to PEX cells compared with uninfected cells: MS11gfp; for gonococcal adherence to PEX cells with increasing concentrations: 1 h post-challenge; for inhibition at 0.01 µM: Neisseria gonorrhoeae, 1 h, read-out: inhibition of adherence to PEX cells. The format is cell-based, Neisseria gonorrhoeae.
Excerpt: Briefly, six N. gonorrhoeae strains were used in the experiments. These included the laboratory strain, MS11; the low-passage isolates, 1291, UT38097, LT38885, PID-26, and SK92-679; all of which were transformed with the green fluorescent protein (GFP) expression plasmid, pCmGFP (GenBank accession number FJ172221) Srikhanta et al (2009, PLoS Pathog. 5(4):e1000400) and, thus, expressed GFP Edwards et al (2000, Infect Immun 68(9):5354-63). […] The ability of carbamazepine to block the adherence of N. gonorrhoeae to human, primary cervical epithelial (PEX) cells was evaluated using a fluorometric adherence assay. Assays were performed essentially as described by Jen et al (2013, supra). In this regard, PEX cells were seeded to a 96-well plate and allowed to grow to confluence. Gonococci were then used to challenge (1 h) PEX cells simultaneously with, or without, various concentrations of carbamazepine ([…], 10 nM, 1 μM, or 100 μM, as noted) or 1% DMSO (vehicle control). Uninfected PEX cells treated with 1% DMSO served as a control for background fluorescence. Fluorescence (485/528 nm) intensity, corresponding to bacterial adherence, was recorded using a Synergy HT Multi-mode Microplate Reader (BioTek Instruments, Winooski, VT USA). The assay was performed in triplicate on 3 separate occasions. A Student's t-test was used to determine the statistical significance of the calculated mean of bacterial adherence.
as §2

[6] abbreviates: 0.2 μg/mL ceftriaxone, 10 μg/mL ciprofloxacin.

Like-named read-outs stand apart in the source and are kept apart here.

The values below come from patent US12564596B2, “Agents and methods for modulating pathogen activity” (Griffith University, priority 2018, dated 2026).

What is called Kd is the constant that tells how readily two partners part at equilibrium. By inhibition is commonly meant how much of the control response was suppressed. By % inhibition is commonly meant the change of the read-out against control, counted positive when it falls. High values mean strong suppression, low ones little suppression.

As for `CO/N=C(\C(=O)N[C@@H]1C(=O)N2C(C(=O)O)=C(CSc3nc(=O)c(=O)[nH]n3C)CS[C@H]12)c1csc(N)n1` [ceftriaxone], the “effect on N. gonorrhoeae in the absence of human cells (zone of inhibition)” value (from here on “effect on N. gonorrhoeae … (zone of inhibition)”) in the experiment on N. gonorrhoeae strains (setting [6]) was “direct effect in killing gonococci”.
`O=C(O)c1cn(C2CC2)c2cc(N3CCNCC3)c(F)cc2c1=O` [ciprofloxacin]: in the experiment with N. gonorrhoeae strains (setting [6]), the “effect on N. gonorrhoeae … (zone of inhibition)” value is “direct effect in killing gonococci”.
As to `C[C@](N)(Cc1ccc(O)c(O)c1)C(=O)O` [methyldopa, (S)-2-amino-3-(3,4-dihydroxyphenyl)-2-methyl-propanoic acid], the Kd in experiment [1] (SPR, single cycle kinetics, 25° C., PBS, read-out: KD) was 1.01 nM. In experiment [2], the inhibition at 0.1 µM worked out at 88.9%, the “Block MS11 pilin in SPR” value is listed as “Yes”, the “Drug RU” value worked out at 4.578 RU and the “Pilin + Drug RU” value was 8.003 RU. In addition, in experiment [3], the “% inhibition” value is reported as 93.94%, the “Block HIV in SPR” value is listed as “Yes”, the “Drug RU” value is recorded as 0.296 RU and the “Pilin + Drug RU” value came out at 3.692 RU. The “gonococcal adherence to CHO-CR3 cells compared with CHO-neo cells” value in experiment [4] (100 μM, 1 h post-challenge) is listed as “not significantly different than that recorded for CHO-neo cells”. The “gonococcal adherence to CHO-CR3, but not CHO-neo, cells with increasing concentrations” value in experiment [4] (1 h post-challenge) is listed as “dose-dependent decrease”. Besides, in experiment [5] (1 μM), the “gonococcal adherence to PEX cells compared with uninfected cells” value is given as “not significantly (p≥0.234) different than those obtained for vehicle (DMSO)-treated, uninfected PEX cells”. In experiment [5] (100 μM), the “gonococcal adherence to PEX cells compared with uninfected cells” value is “not significantly (p≥0.234) different than that recorded for uninfected cells”. Further, in experiment [5], the “gonococcal adherence to PEX cells with increasing concentrations” value is on record as “dose-dependent decrease” and the inhibition at 0.01 µM was roughly 85%. Further, the “effect on N. gonorrhoeae … (zone of inhibition)” value in the experiment on N. gonorrhoeae strains (100 μM to 100 μM [sic]) was “no effect”.
Regarding `O=C(O)c1ccccc1Nc1cccc(C(F)(F)F)c1` [flufenamic acid, 2{[3-(trifluoromethyl)phenyl]amino}benzoic acid], the Kd in experiment [1] was 6.66 nM. Moreover, in experiment [2], the inhibition at 0.1 µM came out at 79.8%, the “Block MS11 pilin in SPR” value is “Yes”, the “Drug RU” value worked out at 4.627 RU and the “Pilin + Drug RU” value came out at 10.872 RU. In addition, in experiment [3], the “% inhibition” value is recorded as 85.47%, the “Block HIV in SPR” value is recorded as “Yes”, the “Drug RU” value is reported as 0.473 RU and the “Pilin + Drug RU” value is 8.857 RU. The “blocking of the adherence of gonococci to CR3” value in experiment [4] (100 μM, CHO-CR3 cells, 1 h) is “Greater than 86%”. Further, the “gonococcal adherence to CHO-CR3, but not CHO-neo, cells with increasing concentrations” value in experiment [4] (1 h post-challenge) is given as “dose-dependent decrease”. In experiment [5], the “gonococcal adherence to PEX cells with increasing concentrations” value is reported as “dose-dependent decrease” and the inhibition at 0.01 µM was roughly 70%. In the experiment on N. gonorrhoeae strains (100 μM to 100 μM [sic]), the “effect on N. gonorrhoeae … (zone of inhibition)” value is “no effect”. For the same molecule, in the experiment with N. gonorrhoeae strains (concentrations of ≤1 μM), the “effect on N. gonorrhoeae … (zone of inhibition)” value was “no effect”.
